Laboratory results: patent US6638936B1, “Benzofurylpiperazine serotonin agonists” (Eli Lilly and Company, priority 1999, dated 2003)
Like-named read-outs stand apart in the source and are kept apart here.

Experiments:
human 5-HT2C receptor [1] = target: T1, human 5-HT2C receptor (Homo sapiens, UniProt P28335); experiment: [125I]-DOI binding for determination of 5-HT2c receptor affinity; details: for Ki: 5-HT RECEPTOR 2c, [125I]-DOI, membranes of AV12 cells with human 5-HT2c, Ki from IC50 by Cheng-Prusoff; for affinity for the 5-HT2c receptor (in words): [125I]-DOI binding
T1 construct: expressed in transfected cells
T1 sequence (P28335 33-458): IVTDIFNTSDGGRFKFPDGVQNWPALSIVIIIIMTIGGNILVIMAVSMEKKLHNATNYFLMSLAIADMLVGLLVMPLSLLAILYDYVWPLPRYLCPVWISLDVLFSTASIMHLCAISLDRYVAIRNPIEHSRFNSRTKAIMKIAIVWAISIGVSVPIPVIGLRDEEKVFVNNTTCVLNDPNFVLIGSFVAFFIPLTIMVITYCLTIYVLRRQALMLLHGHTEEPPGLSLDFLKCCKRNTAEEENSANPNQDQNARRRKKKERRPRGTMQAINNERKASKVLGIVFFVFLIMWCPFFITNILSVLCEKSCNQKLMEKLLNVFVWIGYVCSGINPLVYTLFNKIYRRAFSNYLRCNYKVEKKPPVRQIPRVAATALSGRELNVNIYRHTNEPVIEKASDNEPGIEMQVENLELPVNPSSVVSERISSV
Experimental: The ability of the compounds of Formula I to bind to the 5-HT2c receptor subtype was measured essentially as described by Wainscott (Wainscott, et al., Journal of Pharmacology and Experimental Therapeutics, 276, 720-727 (1996)).
AV12 cells stably transfected with the human 5-HT2c receptors were grown in suspension and harvested by centrifugation, resuspended in 50 mM tris-HCl, pH 7.4, and frozen at −70° C. On the day of assay, an aliquot of cells was thawed, resuspended in 40 mL of 50 mM tris-HCl, pH 7.4, and centrifuged at 39,800×g for 10 minutes at 4° C. The resulting pellet was resuspended, incubated at 37° C. for 10 minutes to remove endogenous serotonin, then centrifuged twice more.
Briefly, prepared cell membranes were added to dilutions of compounds in a final solution containing 50 mM tris-HCl, pH 7.4, 9.75 mM MgCl2, 0.5 mM EDTA, 10 μM pargyline, 0.1% sodium ascorbate, and 0.1 nM [^125I]-DOI, with 10 μM mianserin for defining non-specific binding. All incubations (800 μL) were performed at 37° C. for 30 minutes before harvesting onto GF/C filters prewet with 0.5% polyethyleneimine, with four 1 mL washes of ice-cold 50 mM tris-HCl, pH 7.4, and counting in a gamma counter. Nonlinear regression analysis was performed on the concentration response curves using a four parameter logistic equation described by DeLean (DeLean, et al., Molecular Pharmacology, 21, 5-16 (1982)). IC50 values were converted to Ki values using the Cheng-Prusoff equation (Cheng, et al., Biochem. Pharmacol., 22, 3099-3108 (1973)).

5-HT1a receptor = target: T2, 5-HT1a receptor (Homo sapiens, UniProt P08908); experiment: Serotonergic receptor binding selectivity, 5-HT1a
T2 sequence (P08908 1-422): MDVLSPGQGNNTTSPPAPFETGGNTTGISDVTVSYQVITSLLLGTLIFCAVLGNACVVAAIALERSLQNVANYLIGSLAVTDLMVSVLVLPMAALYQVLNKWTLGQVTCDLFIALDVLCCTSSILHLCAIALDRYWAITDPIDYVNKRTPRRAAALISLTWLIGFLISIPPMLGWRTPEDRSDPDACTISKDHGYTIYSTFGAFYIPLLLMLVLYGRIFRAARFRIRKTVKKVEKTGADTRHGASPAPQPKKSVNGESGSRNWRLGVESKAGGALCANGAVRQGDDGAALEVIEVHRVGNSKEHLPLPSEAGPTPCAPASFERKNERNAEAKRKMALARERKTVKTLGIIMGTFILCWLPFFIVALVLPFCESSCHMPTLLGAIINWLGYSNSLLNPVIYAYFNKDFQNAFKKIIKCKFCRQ

5-HT1b receptor = 5-HT1b receptor (Homo sapiens, UniProt P28222); experiment: Serotonergic receptor binding selectivity, 5-HT1b; details: 5-HT RECEPTOR 1b
5-HT1d receptor = 5-HT1d receptor (Homo sapiens, UniProt P28221); experiment: Serotonergic receptor binding selectivity, 5-HT1d; details: 5-HT RECEPTOR 1d
5-HT1e receptor = 5-HT1e receptor (Homo sapiens, UniProt P28566); experiment: Serotonergic receptor binding selectivity, 5-HT1e; details: 5-HT RECEPTOR 1e
5-HT1f receptor = target: T3, 5-HT1f receptor (Homo sapiens, UniProt P30939); experiment: Serotonergic receptor binding selectivity, 5-HT1f; details: 5-HT RECEPTOR 1f
T3 sequence (P30939 1-366): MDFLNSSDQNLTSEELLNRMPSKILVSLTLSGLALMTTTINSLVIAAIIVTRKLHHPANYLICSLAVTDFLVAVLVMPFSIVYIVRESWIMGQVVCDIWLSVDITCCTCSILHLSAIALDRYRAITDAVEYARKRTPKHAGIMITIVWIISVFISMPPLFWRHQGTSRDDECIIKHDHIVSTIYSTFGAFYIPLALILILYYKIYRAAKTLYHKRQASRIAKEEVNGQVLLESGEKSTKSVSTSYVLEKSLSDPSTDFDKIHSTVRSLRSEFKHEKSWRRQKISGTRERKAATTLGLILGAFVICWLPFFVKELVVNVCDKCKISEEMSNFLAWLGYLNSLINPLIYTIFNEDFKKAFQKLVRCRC

5-HT2a receptor = 5-HT2a receptor (Homo sapiens, UniProt P28223); experiment: Serotonergic receptor binding selectivity, 5-HT2a
5-HT2b receptor = 5-HT2b receptor (Homo sapiens, UniProt P41595); experiment: Serotonergic receptor binding selectivity, 5-HT2b
5-HT4 receptor = 5-HT4 receptor (Homo sapiens, UniProt Q13639); experiment: Serotonergic receptor binding selectivity, 5-HT4; details: 5-HT RECEPTOR 4
5-HT6 receptor = 5-HT6 receptor (Homo sapiens, UniProt P50406); experiment: Serotonergic receptor binding selectivity, 5-HT6
human 5-HT2C receptor [2] = target: T1, human 5-HT2C receptor; experiment: [35S]-GTPγS binding (immunoadsorption scintillation proximity assay); format: biochemical; details: for functional activity at the 5-HT2c receptor (in words): [35S]-GTPγS assay
Description: The 5-HT2C receptor is functionally coupled to specific G-proteins. Agonist activation of 5-HT2C G-protein-coupled receptors results in the release of GDP from the […] (G alpha q or G alpha i) of the G-protein and the subsequent binding of GTP. The binding of the stable analog [^35S]-GTPγS is an indicator of this receptor's activation.
The immunoadsorption scintillation proximity assay (ISPA) in microtiter plates of [^35S]-GTPγS binding to G alpha q or G alpha i was modified from published conditions (DeLapp et al, JPET 289 (1999) 946-955). Test compounds were dissolved in DMSO and diluted in assay buffer consisting of 50 mM Tris-HCl (pH 7.4), 10 mM MgCl2, 100 mM NaCl, and 0.2 mM EGTA. Incubations were performed over 12 test concentrations; volume was 200 μl. The incubation also contained […] and 0.25 nM [^35S]-GTPγS. Membrane homogenates from AV12 cells stably transfected with the human 5-HT2C receptor were added and the microtiter plates were incubated for 30 minutes at room temperature. The incubation was terminated by the addition of Nonidet P-40 (final concentration of 0.27%), followed by addition of rabbit polyclonal anti-G alpha q/11 antibody (0.2 μg per well), and anti-rabbit scintillation proximity assay beads (Amersham; 1.25 mg per well; final volume was 290 μl). The mixture was incubated for 3 hours at room temperature to complete the immunoadsorption of [^35S]-GTPγS bound to G alpha q/11. Microtiter plates were centrifuged briefly to pellet beads. [^35S]-GTPγS binding was quantitated by microtiter plate scintillation spectrometry (Wallac). Data analysis was performed by nonlinear regression analysis with GraphPad Prism software running on a personal computer, using 5-HT control concentration-response curves to define maximal stimulation of [^35S]-GTPγS binding.

Sequence of 5-HT2b receptor (P41595 whole entry): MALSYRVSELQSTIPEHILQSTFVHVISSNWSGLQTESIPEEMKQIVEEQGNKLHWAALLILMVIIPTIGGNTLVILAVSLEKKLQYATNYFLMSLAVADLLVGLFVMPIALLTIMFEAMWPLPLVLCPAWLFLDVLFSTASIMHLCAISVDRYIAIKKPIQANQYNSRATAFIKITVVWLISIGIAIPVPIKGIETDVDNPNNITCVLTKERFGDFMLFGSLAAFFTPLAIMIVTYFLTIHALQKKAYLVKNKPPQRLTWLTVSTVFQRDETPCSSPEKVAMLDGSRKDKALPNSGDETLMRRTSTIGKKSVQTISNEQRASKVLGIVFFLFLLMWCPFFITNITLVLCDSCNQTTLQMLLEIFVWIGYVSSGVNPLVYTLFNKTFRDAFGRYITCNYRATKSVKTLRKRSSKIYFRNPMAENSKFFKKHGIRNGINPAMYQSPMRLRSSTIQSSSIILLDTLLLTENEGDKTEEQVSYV
Sequence of 5-HT1b receptor (P28222 whole entry): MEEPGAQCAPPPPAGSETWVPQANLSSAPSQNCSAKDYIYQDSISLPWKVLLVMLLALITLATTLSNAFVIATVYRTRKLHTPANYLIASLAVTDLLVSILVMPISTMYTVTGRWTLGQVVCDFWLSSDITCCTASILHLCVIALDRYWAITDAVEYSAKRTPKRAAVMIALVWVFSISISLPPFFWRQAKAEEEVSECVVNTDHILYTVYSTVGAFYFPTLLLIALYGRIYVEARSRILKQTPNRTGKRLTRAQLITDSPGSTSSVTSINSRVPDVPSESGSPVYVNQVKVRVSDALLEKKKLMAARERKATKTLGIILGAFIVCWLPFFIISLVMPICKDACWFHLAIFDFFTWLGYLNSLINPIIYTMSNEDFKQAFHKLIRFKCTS
Sequence of 5-HT2a receptor (P28223 whole entry): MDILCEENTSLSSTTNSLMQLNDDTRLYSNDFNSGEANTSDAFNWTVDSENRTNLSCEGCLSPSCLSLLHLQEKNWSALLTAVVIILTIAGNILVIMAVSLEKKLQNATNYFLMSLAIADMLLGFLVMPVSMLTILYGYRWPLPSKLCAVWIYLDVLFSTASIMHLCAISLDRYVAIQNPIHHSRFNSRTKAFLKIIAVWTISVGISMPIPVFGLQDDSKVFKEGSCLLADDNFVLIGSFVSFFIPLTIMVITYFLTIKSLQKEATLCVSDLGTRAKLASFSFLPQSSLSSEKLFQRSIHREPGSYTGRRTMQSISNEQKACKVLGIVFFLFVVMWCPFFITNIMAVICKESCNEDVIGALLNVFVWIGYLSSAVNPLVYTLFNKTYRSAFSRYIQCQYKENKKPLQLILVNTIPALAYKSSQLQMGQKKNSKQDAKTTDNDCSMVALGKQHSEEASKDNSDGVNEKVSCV
Sequence of 5-HT6 receptor (P50406 whole entry): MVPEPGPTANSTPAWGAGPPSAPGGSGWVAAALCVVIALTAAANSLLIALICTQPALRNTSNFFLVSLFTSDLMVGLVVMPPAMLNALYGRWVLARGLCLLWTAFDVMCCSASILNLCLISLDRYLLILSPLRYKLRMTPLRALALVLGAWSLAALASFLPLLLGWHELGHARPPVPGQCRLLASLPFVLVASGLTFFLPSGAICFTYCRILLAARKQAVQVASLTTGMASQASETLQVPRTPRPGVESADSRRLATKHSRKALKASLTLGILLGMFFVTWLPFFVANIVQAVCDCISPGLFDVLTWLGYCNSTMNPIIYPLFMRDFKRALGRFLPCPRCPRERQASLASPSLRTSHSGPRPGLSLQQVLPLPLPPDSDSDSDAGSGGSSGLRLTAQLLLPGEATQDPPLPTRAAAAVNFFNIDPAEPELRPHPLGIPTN
Sequence of 5-HT1e receptor (P28566 whole entry): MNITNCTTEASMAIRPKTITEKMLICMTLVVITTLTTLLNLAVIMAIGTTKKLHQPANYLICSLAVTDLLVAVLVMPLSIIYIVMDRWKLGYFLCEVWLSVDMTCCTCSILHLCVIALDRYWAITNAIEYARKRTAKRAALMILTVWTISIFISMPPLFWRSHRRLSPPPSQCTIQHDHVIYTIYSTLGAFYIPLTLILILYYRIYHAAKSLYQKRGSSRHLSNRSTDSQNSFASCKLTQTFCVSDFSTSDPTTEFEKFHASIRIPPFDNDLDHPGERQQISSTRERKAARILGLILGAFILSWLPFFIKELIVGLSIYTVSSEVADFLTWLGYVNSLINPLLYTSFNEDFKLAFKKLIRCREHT
Sequence of 5-HT1d receptor (P28221 whole entry): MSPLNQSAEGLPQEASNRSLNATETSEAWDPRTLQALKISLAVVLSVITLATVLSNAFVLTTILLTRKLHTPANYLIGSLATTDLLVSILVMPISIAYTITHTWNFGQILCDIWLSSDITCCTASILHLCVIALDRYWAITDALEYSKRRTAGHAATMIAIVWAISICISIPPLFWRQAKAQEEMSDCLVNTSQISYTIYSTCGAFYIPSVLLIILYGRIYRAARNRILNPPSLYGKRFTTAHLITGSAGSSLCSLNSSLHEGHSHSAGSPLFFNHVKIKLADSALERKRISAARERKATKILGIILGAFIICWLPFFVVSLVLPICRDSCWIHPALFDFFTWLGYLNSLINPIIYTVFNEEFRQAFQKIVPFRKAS
Sequence of 5-HT4 receptor (Q13639 whole entry): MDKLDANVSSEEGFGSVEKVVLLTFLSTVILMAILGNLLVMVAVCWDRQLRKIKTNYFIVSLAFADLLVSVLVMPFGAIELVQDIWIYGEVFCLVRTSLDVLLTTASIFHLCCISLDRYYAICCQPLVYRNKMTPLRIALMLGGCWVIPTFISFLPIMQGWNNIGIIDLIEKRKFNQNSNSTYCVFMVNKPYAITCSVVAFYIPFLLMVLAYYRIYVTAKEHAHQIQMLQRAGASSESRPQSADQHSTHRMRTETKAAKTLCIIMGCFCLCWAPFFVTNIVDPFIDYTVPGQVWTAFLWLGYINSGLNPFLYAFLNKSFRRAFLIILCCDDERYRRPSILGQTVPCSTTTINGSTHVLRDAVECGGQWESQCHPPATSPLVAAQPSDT

With `C[C@H]1CN(c2ccc(C(F)(F)F)c3ccoc23)CCN1.O=C(O)/C=C/C(=O)O` [Example 1, 1-(4-trifluoromethylbenzofur-7-yl)-3(S)-methylpiperazine fumarate] the Ki (human 5-HT2C receptor [1]) was 2.41 nM, the “affinity for the 5-HT2c receptor (in words)” value (human 5-HT2C receptor [1]) was “found to have affinity” and the Ki (5-HT1a receptor) was 134 nM. It also gave a Ki (5-HT1b receptor) of 260 nM, a Ki (5-HT1d receptor) of 147 nM and a Ki (5-HT1e receptor) of 633 nM. It also gave a Ki (5-HT1f receptor) of 163 nM, a Ki (5-HT2a receptor) of 37.6 nM and a Ki (5-HT2b receptor) of 177 nM. For the same molecule, the Ki (5-HT4 receptor) was 977 nM, the Ki (5-HT6 receptor) was 225 nM and the EC50 (human 5-HT2C receptor [2]) was 8.5 nM. For the same molecule, the “functional activity at the 5-HT2c receptor (in words)” value (human 5-HT2C receptor [2]) was “agonist”.

In the case of `CC[C@H]1CN(c2ccc(C(F)(F)F)c3ccoc23)CCN1.O=C(O)/C=C/C(=O)O` [Example 2, 1-(4-trifluoromethylbenzofur-7-yl)-3(S)-ethylpiperazine fumarate], the Ki (human 5-HT2C receptor [1]) is reported as 0.77 nM, the “affinity for the 5-HT2c receptor (in words)” value (human 5-HT2C receptor [1]) is reported as “found to have affinity” and the Ki (5-HT1a receptor; 5-HT RECEPTOR 1a, read-out: Ki, 5-HT receptor 1a) is reported as 261 nM. It also gave a Ki (5-HT1b receptor) of 2940 nM, a Ki (5-HT1d receptor) of 726 nM and a Ki (5-HT1e receptor) of 1140 nM. It also gave a Ki (5-HT1f receptor) of 1000 nM, a Ki (5-HT2a receptor; 5-HT RECEPTOR 2a, read-out: Ki, 5-HT receptor 2a) of 27.8 nM and a Ki (5-HT2b receptor; 5-HT RECEPTOR 2b, read-out: Ki, 5-HT receptor 2b) of 177 nM. For the same molecule, the Ki (5-HT6 receptor; 5-HT RECEPTOR 6, read-out: Ki, 5-HT receptor 6) was 607 nM, the “functional activity at the 5-HT2c receptor (in words)” value (human 5-HT2C receptor [2]) was “agonist” and the EC50 (human 5-HT2C receptor [2]; agonist of 5-HT2c receptor, membranes of AV12 cells with human 5-HT2C, 5-HT defines maximal stimulation, read-out: EC50, [35S]-GTPγS assay) was 7.8 nM.
